Values belong to the compound of their own block, whether it stands above or below them.
How the values were obtained:
MRSA N315 [1] = assay: MIC assay and FICI synergy determination (checkerboard); assay type: cell-based, Staphylococcus aureus; details: for MIC: Staphylococcus aureus, MRSA, read-out: MIC in MRSA N315
Method: (§1) Microbiological Studies: MRSA N315 was a gift from Dr. Steven Gill, University of Rochester, Rochester, NY, USA. S. aureus ATCC 29213 was acquired from the American Type Culture Collection. De-identified clinical MRSA isolates were selected at random from the clinical isolate strain bank at Barnes-Jewish Hospital, St. Louis, MO, USA. Minimal inhibitory concentration (MIC) assays for inhibition of growth were performed following the recommendations of the Clinical and Laboratory Standards Institute (CLSI)^43. Briefly, 23 antibacterial compounds (Supplemental Table 1) were selected based on coverage of all major drug classes, including three compounds not classified as antibiotics for human use, but with known antibacterial properties. Compounds were dissolved in dimethyl sulfoxide (DMSO) to a stock concentration of 50 mg/ml. Exceptions: Sulfometuron at 20 mg/ml in DMSO; Tobramycin, D-cycloserine, and colistin at 50 mg/ml in H2O and filtered at 2 μm. The 23 compounds were formulated into all 253 possible unique pairwise combinations at fixed ratios and at 100× concentrations in solvent. To increase the range of concentrations assayed for possible synergistic or antagonistic drug interactions (>2,000-fold), the drug stocks were arrayed into threefold dilution series down eight rows in 96-well Costar master drug plates, using a BioMek FX robotic liquid handler (Beckman Coulter, Inc.). Drugs were then mixed 1:100 into 96-well plates containing 200 μl/well of cation-adjusted Mueller-Hinton broth (CAMHB). All drug susceptibility assay wells were inoculated with ˜1 μl of mid-log phase bacterial culture at 0.5 McFarland standard (˜2×10^8 CFU/ml) and grown at 37° C. for 24 h. Endpoint growth at 37° C. after 24 h was determined by optical density at 600 nm ≥0.1 using a Synergy H1 reader (BioTek, Inc.).
Synergy of antibiotic combinations was determined using the fractional inhibitory concentration index (FICI) method ^57,58. By this method, the MIC of the antibiotic compound in combination is divided by the MIC of the compound alone, yielding the fractional contribution of each drug component in the combination. Quotients for all in a combination are summed and drug interactions scored using the formula: FICI=(MIC Acomb A B C)/MICagent A+(MIC Bcomb A B C)/MICagent B+(MIC Ccomb A B C)/MICagentC Select pairwise combinations against MRSA were then combined with each of the 21 remaining single drugs to make triple combinations, formulated and tested in identical fashion to the double combinations. Synergy of combinations was confirmed via triplicate measurements of drug conditions at the MIC. Based on its high synergy against MRSA N315 in the sparse screening, ME/PI/TZ and its constituents were selected for further characterization. Final susceptibility testing of ME/PI/TZ and its components was performed using twofold dilution from 128 to 2 μg/ml for each component

MRSA N315 [2] = assay: Neutropenic mouse peritonitis model of MRSA infection; assay type: in vivo, mice; details: for Result (Alive/Dead) / Result (survivors per group): 6 doses; for Result (Alive/Dead): one line per mouse; for Result (survivors per group): six days post-infection
From the text: In vivo mouse model of MRSA infection: Animals. Outbred ICR female mice (6-8 weeks old, 17-25 g body weight; Harlan Laboratories, Inc., Indianapolis, IN, USA) were used. Mice were given Teklad 2019 Extruded Rodent Diet (Harlan Laboratories, Inc., Indianapolis, IN, USA) and water ad libitum. Mice were maintained in polycarbonate shoebox cages containing corncob (The Andersons, Inc., Maumee, OH, USA) and Alpha-dri (Shepherd Specialty Papers, Inc., Richland, MI, USA) bedding under 12-h light/12-h dark cycle at 22±1° C. All procedures involving animals were approved by the University of Notre Dame Institutional Animal Care and Use Committee.
Neutropenic mouse peritonitis model of MRSA infection. Doses of cyclophosphamide (100 μl of 50 mg/ml in 0.9% saline corresponding to 200 mg/kg; Alfa Aesar, Ward Hill, MA, USA) were given intraperitoneally (IP) at 4 days and 1 day prior to infection. The S. strain N315 was streaked onto Brain-Heart Infusion (BHI; Becton Dickson and Company, Sparks, MD, USA) agar and grown overnight at 36° C. The MRSA N315 bacterial inoculum was adjusted to approximately 1×10^8 CFU/ml (corresponding to OD540=0.5), then diluted to give 2×10^7CFU/ml. A 10% porcine mucin (Sigma-Aldrich, St. Louis, MO, USA) suspension was prepared and adjusted to pH 7. Immediately prior to infection, the bacterial inocula were diluted 1:1 with 10% mucin to a final concentration of 1×10^7CFU/ml in 5% mucin. The mice were then infected IP with 0.5 ml of this inoculum. In vivo dosing of compounds in mice was compared with mean or range peak human plasma concentrations of studied β-lactams^44,46,47,62,63.
Antibiotic preparation. Meropenem was obtained from AK Scientific, Inc. (Union City, CA, USA), piperacillin and tazobactam were obtained from Sigma-Aldrich Co. (St. Louis, MO, USA). Linezolid (CAS 165800-03-3) was obtained from AmplaChem (Carmel, IN, USA). Antibiotics were dissolved at a concentration of 16.67 mg/ml in 30% DMSO/30% propylene glycol/40% water. Linezolid was used as positive control and was prepared at 7.5 mg/ml. Vehicle (30% DMSO/30% propylene glycol/40% water) was included as negative control. The dosing formulations were sterilized by passing through 0.2 μm filter prior to injection.
(§2) Bacterial isolation from blood. Blood samples were checked for bacterial growth by plating and liquid culture. Whole blood (100 μl, three samples per group) was spread onto Brain-Heart Infusion (BHI) agar plates and incubated at 36° C. overnight. Colonies were counted and three colonies were selected, grown overnight in liquid BHI culture at 36° C., then mixed 1:1 with 30% LB-glycerol and stored at −80° C. The remaining three blood samples of each group (50 μl) was added to 5 ml BHI broth and incubated overnight at 36° C. When growth was noted, cultures were mixed 1:1 with 30% LB-glycerol and stored at −80° C.
Statistical Analyses: Data for minimal inhibitory concentrations (MICs) are derived from triplicate measurements. Adaptation data are taken from two replicate experiments for each drug combination condition. Data for qRT-PCR expression profiling are derived from three replicate experiments taken from three biological replicates each, with standard error of measurement calculated. Mice were treated in groups of six, and growth determination of bacteria determined via plate and broth culture in triplicate. Fisher's Exact test with Bonferroni correction was used for 8 independent tests (comparing each treatment to 610 vehicle).

mecA = assay: Expression profiling with qRT-PCR; assay type: cell-based, Staphylococcus aureus; details: wild-type MRSA N315, relative to gyrB
Method: Expression profiling with qRT-PCR: Wild-type and adapted MRSA N315 isolates were grown in triplicate in 100 ml flasks to mid-log phase in CAMHB +/−piperacillin at 11.1 μg/ml or tazobactam at 33.3 μg/ml. To harvest cells at mid-log phase, each culture flask was split into 2×50 ml screw-cap tubes, spun down at 4° C. for 10 min at 3500 rpm, supernatant removed, and pellets combined carefully with a 2 ml serological pipette. 1 ml RNAprotect Bacteria Reagent (Qiagen, Valencia, CA, USA) was added to pellets to stabilize the RNA, vortexed briefly, and incubated for 5 min at RT. After incubation, tubes were spun again at 4° C. for 10 min at 3500 rpm, supernatant removed, and the pellets were stored at −80° C. […]
CFX protocol: 2 min@50° C., 2 min@95° C., (15 s@95° C., 1 min@60° C.)×40 cycles. Gene expression was determined using the ΔΔCt method of normalized quantitation 60, where Ct indicates the cycle number at which exponential growth phase increases above threshold fluorescence signal.

MRSA N315 [3] = assay: In vitro MICs and FICI for MRSA N315 after passage in vivo; assay type: cell-based, Staphylococcus aureus
From the text: We tested MRSA N315 cultures from blood drawn from mice treated with meropenem, piperacillin, or vehicle for their in vitro MICs against ME/PI/TZ and its constituent single drugs to determine whether adaptation occurred during passage in vivo. All four tested isolates of MRSA N315 had identical MICs for the triple ME/PI/TZ and all constituent drugs, and thus identical synergy (Table 6B).
as §1, §2

MRSA N315 [4] = assay: Adaptation and cross-resistance assays (11-day passage); assay type: cell-based, Staphylococcus aureus
Method: Adaptation and Cross-resistance Assays: 414 MRSA N315 was grown in 150 μl/well of CAMHB with constant shaking at 37° C. and passaged over 11 days in identical 96-well plates containing replicate threefold dilutions of ME/PI/TZ, ME/PI, ME/TZ, PI/TZ, ME, PI, and TZ. Top concentrations of drug combinations were 33.3 μg/ml for each component, while top concentrations for single drugs was 100 μg/ml. To test for cell viability, at the end of the assay on day 11, all wells from the plate were pinned with a sterile 96-pin replicator and transferred to CAMHB only. After passage, plates were filled 1:1 with 30% CAMHB/glycerol and frozen at −80° C. for later analysis.
Growth rate of isolates over passages in each condition was determined by linear best-fit of logarithm-converted exponential growth phase. […] Adapted isolates were retrospectively chosen from each combination or single compound in wells showing an increase in MIC or growth rate, frozen isolates were streaked out on agar plates to obtain single colonies, re-grown in broth conditions identical to those in which they grew originally, and then re-inoculated in sterile 96-well plates identical to the original 11-day 431 plates.

[5] = 67 mg/kg (of each) every 8 hrs SC

Compound: CO/N=C(\C(=O)N[C@@H]1C(=O)N2C(C(=O)[O-])=C(C[N+]3(C)CCCC3)CS[C@H]12)c1csc(N)n1 [Cefepime]
- MIC (MRSA N315 [1]; single compounds): 100 µg/mL

Compound: O=C(N[C@H](CO)[C@H](O)c1ccc([N+](=O)[O-])cc1)C(Cl)Cl [Chloramphenicol]
- MIC (MRSA N315 [1]; single compounds): 11.1 µg/mL

Compound: N[C@@H]1CONC1=O [D-Cycloserine]
- MIC in MRSA N315 (MRSA N315 [1]; single compounds): 56 µg/mL

Compound: CCN(CC)C(=S)SSC(=S)N(CC)CC [Disulfiram]
- MIC (MRSA N315 [1]): 11.1 µg/mL

Compound: C[C@H]1COc2c(N3CCN(C)CC3)c(F)cc3c(=O)c(C(=O)O)cn1c23 [Levofloxacin]
- MIC (MRSA N315 [1]; single compounds): 0.4 µg/mL

Compound: CC(=O)NC[C@H]1CN(c2ccc(N3CCOCC3)c(F)c2)C(=O)O1 [Linezolid]
- bacteria in blood taken at 11 h post-infection (MRSA N315 [2]; 30 mg/kg): zero plated colonies and no growth in liquid cultures
- Result (Alive/Dead) (MRSA N315 [2]; 30 mg/kg every 8 hrs SC): Alive
- Result (survivors per group) (MRSA N315 [2]; 30 mg/kg every 8 hrs SC): 6/6
- survival for six days post-infection (MRSA N315 [2]; 30 mg/kg, n=6/group): All mice
- p versus vehicle (Fisher's exact test) (MRSA N315 [2]; survival, n=6/group): 0.02
- MIC (MRSA N315 [1]; single compounds): 3.7 µg/mL

Compound: C/C(=C\C(=O)OCCCCCCCCC(=O)O)C[C@@H]1OC[C@H](C[C@@H]2O[C@H]2[C@@H](C)[C@H](C)O)[C@@H](O)[C@H]1O [Mupirocin]
- MIC (MRSA N315 [1]; single compounds): 0.4 µg/mL

Compound: Cc1cc(NS(=O)(=O)c2ccc(N)cc2)no1 [Sulfamethoxazole]
- MIC (MRSA N315 [1]; single compounds): 100 µg/mL

Compound: Cc1cc(C)nc(NC(=O)NS(=O)(=O)c2ccccc2C(=O)O)n1 [Sulfometuron]
- MIC (MRSA N315 [1]): > 200 µg/mL

Compound: C[C@]1(Cn2ccnn2)[C@H](C(=O)O)N2C(=O)C[C@H]2S1(=O)=O [Tazobactam]
- Result (Alive/Dead) (MRSA N315 [2]; [5]): Dead
- Result (survivors per group) (MRSA N315 [2]; [5]): 0/6
- mice that succumbed to the infection (MRSA N315 [2]; most within 48 h, 67 mg/kg (of each)): all mice
- MIC (MRSA N315 [1]; single compounds): 128 µg/mL
- induction of mecA expression (mecA): strong inducer of mecA
- MIC (MRSA N315 [3]; Staphylococcus aureus, MRSA): 100 µg/mL
- MIC (MRSA N315 [3]; Wild-type N315): 100 µg/mL
- MIC (MRSA N315 [3]; colonies from mice given PI): 100 µg/mL
- MIC (MRSA N315 [3]; colonies from mice given Vehicle): 100 µg/mL
- collateral effect on susceptibility (MRSA N315 [4]; MRSA N315 after exposure to any other single or double compounds): no collateral sensitivity

Compound: CN(C)c1cc(NC(=O)CNC(C)(C)C)c(O)c2c1C[C@H]1C[C@H]3[C@H](N(C)C)C(O)=C(C(N)=O)C(=O)[C@@]3(O)C(O)=C1C2=O [Tigecycline]
- MIC (MRSA N315 [1]): 0.4 µg/mL

Compound: CN[C@H](CC(C)C)C(=O)N[C@H]1C(=O)N[C@@H](CC(N)=O)C(=O)N[C@H]2C(=O)N[C@H]3C(=O)N[C@H](C(=O)N[C@H](C(=O)O)c4cc(O)cc(O)c4-c4cc3ccc4O)[C@H](O)c3ccc(c(Cl)c3)Oc3cc2cc(c3O[C@@H]2O[C@H](CO)[C@@H](O)[C@H](O)[C@H]2O[C@H]2C[C@](C)(N)[C@H](O)[C@H](C)O2)Oc2ccc(cc2Cl)[C@H]1O [Vancomycin]
- MIC (MRSA N315 [1]): 0.4 µg/mL

Compound: CC1(C)S[C@@H]2[C@H](NC(=O)[C@H](N)c3ccc(O)cc3)C(=O)N2[C@H]1C(=O)O [amoxicillin]
- collateral effect on susceptibility (MRSA N315 [4]; MRSA N315 after prior exposure/adaptation to meropenem): sensitizing

Compound: Bleomycin
- MIC in MRSA N315 (MRSA N315 [1]; single compounds): >500 µg/mL

Compound: Colistin
- MIC in MRSA N315 (MRSA N315 [1]; single compounds): 500 µg/mL

Now from value to compound:

- MIC (MRSA N315 [1]; single compounds): > 200 µg/mL
Compound: CC[C@H]1OC(=O)[C@H](C)[C@@H](O[C@H]2C[C@@](C)(OC)[C@@H](O)[C@H](C)O2)[C@H](C)[C@@H](O[C@@H]2O[C@H](C)C[C@H](N(C)C)[C@H]2O)[C@](C)(O)C[C@@H](C)CN(C)[C@H](C)[C@@H](O)[C@]1(C)O [Azithromycin]

- MIC (MRSA N315 [1]; single compounds): > 500 µg/mL
Compound: C[C@H]1[C@H](NC(=O)/C(=N\OC(C)(C)C(=O)O)c2csc(N)n2)C(=O)N1S(=O)(=O)O [Aztreonam]

- MIC (MRSA N315 [1]; single compounds): > 500 µg/mL
Compound: CCC[C@@H]1C[C@@H](C(=O)N[C@@H]([C@H]2O[C@H](SC)[C@H](O)[C@@H](O)[C@H]2O)[C@H](C)Cl)N(C)C1 [Clindamycin]

- MIC (MRSA N315 [1]; single compounds): > 200 µg/mL
Compound: Cc1ccc(C)c(OCCCC(C)(C)C(=O)O)c1 [Gemfibrozil]

- MIC (MRSA N315 [1]; single compounds): 0.4 µg/mL
Compound: CO[C@H]1/C=C/O[C@@]2(C)Oc3c(C)c(O)c4c(O)c(c(/C=N/N5CCN(C)CC5)c(O)c4c3C2=O)NC(=O)/C(C)=C\C=C\[C@H](C)[C@H](O)[C@@H](C)[C@@H](O)[C@@H](C)[C@H](OC(C)=O)[C@@H]1C [Rifampin]

- MIC (MRSA N315 [1]; single compounds): > 500 µg/mL
Compound: NC[C@H]1O[C@H](O[C@H]2[C@H](O)[C@@H](O[C@H]3O[C@H](CO)[C@@H](O)[C@H](N)[C@H]3O)[C@H](N)C[C@@H]2N)[C@H](N)C[C@@H]1O [Tobramycin]

- MIC (MRSA N315 [1]; single compounds): 6.2 µg/mL
Compound: COc1cc(Cc2cnc(N)nc2N)cc(OC)c1OC [Trimethoprim]

From patent US20230293488A1, “COMPOSITIONS AND METHODS OF USE OF ANTIBACTERIAL DRUG COMBINATIONS” (priority 2015, published 2023)
